Source: a compilation of properties of binary mixtures (doi:10.1007/s10953-014-0283-z)

Assay: xn = mol fraction of the nth substance listed
Conditions: 100 kPa

O + CC[NH3+].O=[N+]([O-])[O-]
x1 = 1
Conditions	viscosity [mPa·s]
293.15 K	0.99
298.15 K	0.89
303.15 K	0.81
308.15 K	0.74
318.15 K	0.6

CC[NH3+].O=[N+]([O-])[O-] + O
viscosity [mPa·s]
Conditions	x2 = 0	x2 = 0.1088	x2 = 0.2597	x2 = 0.3682	x2 = 0.47	x2 = 0.579	x2 = 0.6776	x2 = 0.7889	x2 = 0.8895	x2 = 0.9499
293.15 K	40.61	–	9.91	–	–	–	3.6	2.4	1.64	1.36
298.15 K	34.49	18.13	8.77	6.77	5.61	4.46	3.22	–	–	1.22
303.15 K	29.65	–	–	6.06	5.04	4	2.9	–	–	1.1
308.15 K	25.76	–	6.9	5.41	–	3.61	2.62	1.78	1.22	1
313.15 K	–	12.2	6.2	4.89	4.08	–	2.38	1.62	1.12	0.92
318.15 K	20.12	10.87	5.59	4.43	–	2.97	2.17	–	1.03	0.84
